# Measurements published in PMC4999309, “Structures of TorsinA and its disease-mutant complexed with an activator reveal the molecular basis for primary dystonia” (eLife, 2016).
# Target: T1, TorsinAEQ-LULL1 (TorsinA-ATP-LULL1) (Homo sapiens, UniProt O14656+Q8NFQ8, O14656:E171Q)
# T1 construct: gene TOR1A; TorsinA 51-332 (E171Q ATP trap), N-terminal 10xHis-7xArg tag cut by 3C; untagged luminal domain LULL1 233-470; co-expressed in E. coli with alpaca nanobody VHH-BS2 (crystallisation chaperone); heterodimer plus nanobody
# Experiment: X-ray crystal structure, […] Å
# Type: binding
# Settings: 2 mM ATP, pH 6.5; crystallised with nanobody VHH-BS2; ATP in Walker A/B nucleotide site with LULL1 Arg449 finger
smiles,measurement,value
Nc1ncnc2c1ncn2[C@@H]1O[C@H](COP(=O)(O)OP(=O)(O)OP(=O)(O)O)[C@@H](O)[C@H]1O [ATP],"X-ray crystal structure, 1.40 Å",An ATP molecule is bound in the manner characteristic of P-loop NTPases
